Drawing on patent publication US10519177B2, “Heterocyclic compounds and uses thereof” (Plexxikon Inc., priority 2013, dated 2019), this text covers IC50 for 17 compounds.

pIC50: −log10 of the molar value.

For one assay, the system named is bromodomain. The assay can be described thus: at least one of the bromodomain cell assays of Example 57. As to conditions: at least one of the bromodomain cell assays described in Example 57; read-out: IC50 in at least one of the bromodomain cell assays. The assay is classed as cell-based.
Another assay relates to MV-4-11 cells. The assay can be described thus: Oncology cell growth assay MV-4-11 (CellTiter Glo). The assay is classed as cell-based. The conditions noted are these: Homo sapiens, MV4-11, 72 h; read-out: Cell activity (IC50 μM) MV-4-11 3d-Growth. In outline: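 MV-4-11 AML cells (MLL-AF4), 3000 per well, exposed to 8-point 1:3 compound titration from 10 μM top concentration (0.2% DMSO) for 72 h. Viability by CellTiter Glo luminescence, normalized to DMSO controls; pIC50 from four-parameter curve fit.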
Background: In ATP-based viability assays light output follows the ATP content of the culture.

The target of a further assay is BRD4-BD12 (1-477) (Homo sapiens (Human), UniProt O60885). As to the kind of experiment: Alphascreen binding assay BRD4-BD12. As to conditions: BRD4(1 2) H4; read-out: Biochemical activity (IC50 μM) BRD4(1 2) H4. In outline: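 First, compound was preincubated 1 h at room temperature with the His-tagged BRD4 protein (BD1 44-164 or tandem BD12 1-477) and acetylated H4 peptide. Next, donor and acceptor beads were added at 7.5 μg/ml final. After 30 min, AlphaScreen emission was recorded.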
In general terms: In Alpha technology, singlet oxygen from a donor bead excites a nearby acceptor bead.

`[2H]C([2H])(C1CCC(F)(F)CC1)n1cc(-c2cnn(CCC#N)c2)c2ncc(-c3c(C)noc3C)cc21` [P-0339, 3-[4-[1-[dideuterio-(4,4-difluorocyclohexyl)methyl]-6-(3,5-dimethylisoxazol-4-yl)pyrrolo[3,2-b]pyridin-3-yl)pyrazol-1-yl]propanenitrile]: the pIC50 (in general, the IC50 on a negative log10 scale, so that one unit is a factor of ten) with bromodomain is > 5.00. The IC50 in the assay with MV-4-11 cells and on BRD4-BD12 (1-477) was < 1 µM in each case.
Consider `[2H]C([2H])(C1CCC(F)(F)CC1)n1cc(-c2cccnc2)c2ncc(-c3c(C)noc3C)cc21` [P-0340, 4-[1-[dideuterio-(4,4-difluorocyclohexyl)methyl]-3-(3-pyridyl)pyrrolo[3,2-b]pyridin-6-yl]-3,5-dimethyl-isoxazole], for which the negative logarithm of the IC50 (pIC50) with bromodomain is > 5.00. Besides, the IC50 in the assay on MV-4-11 cells and on BRD4-BD12 (1-477) was < 1 µM in each case.
Turning to `[2H]C([2H])(C1CCC(F)(F)CC1)n1cc(-c2ccnc(C3CC3)c2)c2ncc(-c3c(C)noc3C)cc21` [P-0341, 4-[3-(2-cyclopropyl-4-pyridyl)-1-[dideuterio-(4,4-difluorocyclohexyl)methyl]pyrrolo[3,2-b]pyridin-6-yl]-3,5-dimethyl-isoxazole], the pIC50 with bromodomain was > 5.00. The IC50 with MV-4-11 cells and at BRD4-BD12 (1-477) was < 1 µM each time.
In the case of `[2H]C([2H])(C1CCC(F)(F)CC1)n1cc(-c2ccc(O)nc2)c2ncc(-c3c(C)noc3C)cc21` [P-0342, 5-[1-[dideuterio-(4,4-difluorocyclohexyl)methyl]-6-(3,5-dimethylisoxazol-4-yl)pyrrolo[3,2-b]pyridin-3-yl]pyridin-2-ol], the pIC50 in the assay with bromodomain is > 5.00. Also, the half-maximal inhibitory concentration (IC50) in the assay on MV-4-11 cells and at BRD4-BD12 (1-477) was < 1 µM in each case.
Take `[2H]C([2H])(C1CCC(F)(F)CC1)n1cc(-c2ccc(OC)nc2)c2ncc(-c3c(C)noc3C)cc21` [P-0343, 4-[1-[dideuterio-(4,4-difluorocyclohexyl)methyl]-3-(6-methoxy-3-pyridyl)pyrrolo[3,2-b]pyridin-6-yl]-3,5-dimethyl-isoxazole]: in the assay on bromodomain, the negative logarithm of the IC50 (pIC50) was > 5.00. For the same compound, the IC50 in the assay with MV-4-11 cells and at BRD4-BD12 (1-477) was < 1 µM each time.
Turning to `[2H]C([2H])(C1CCC(F)(F)CC1)n1cc(-c2ccc(C)nc2)c2ncc(-c3c(C)noc3C)cc21` [P-0344, 4-[1-[dideuterio-(4,4-difluorocyclohexyl)methyl]-3-(6-methyl-3-pyridyl)pyrrolo[3,2-b]pyridin-6-yl]-3,5-dimethyl-isoxazole], the negative logarithm of the IC50 (pIC50) with bromodomain is > 5.00. Besides, the IC50 in the assay with MV-4-11 cells and at BRD4-BD12 (1-477) was < 1 µM throughout.
On to `[2H]C([2H])(C1CCC(F)(F)CC1)n1cc(-c2ccc(=O)n(C)c2)c2ncc(-c3c(C)noc3C)cc21` [P-0345, 5-[1-[dideuterio-(4,4-difluorocyclohexyl)methyl]-6-(3,5-dimethylisoxazol-4-yl)pyrrolo[3,2-b]pyridin-3-yl]-1-methyl-pyridin-2-one], for which the pIC50 with bromodomain is > 5.00. For the same compound, the IC50 with MV-4-11 cells and on BRD4-BD12 (1-477) was < 1 µM in each case.
`[2H]C([2H])(C1CCC(F)(F)CC1)n1cc(-c2cnc(OC)nc2)c2ncc(-c3c(C)noc3C)cc21` [P-0346, 4-[1-[dideuterio-(4,4-difluorocyclohexyl)methyl]-3-(2-methoxypyrimidin-5-yl)pyrrolo[3,2-b]pyridin-6-yl]-3,5-dimethyl-isoxazole]: in the assay with bromodomain, the pIC50 is > 5.00. The IC50 with MV-4-11 cells and on BRD4-BD12 (1-477) was < 1 µM each time.
In the case of `[2H]C([2H])(C1CCC(F)(F)CC1)n1cc(-c2ccc(N)nc2)c2ncc(-c3c(C)noc3C)cc21` [P-0347, 5-[1-[dideuterio-(4,4-difluorocyclohexyl)methyl]-6-(3,5-dimethylisoxazol-4-yl)pyrrolo[3,2-b]pyridin-3-yl]pyridin-2-amine], the pIC50 in the assay with bromodomain was > 5.00. In addition, the IC50 in the assay on MV-4-11 cells and on BRD4-BD12 (1-477) was < 1 µM throughout.
As for `[2H]C([2H])(C1CCC(F)(F)CC1)n1cc(-c2cnc(N)nc2)c2ncc(-c3c(C)noc3C)cc21` [P-0348, 5-[1-[dideuterio-(4,4-difluorocyclohexyl)methyl]-6-(3,5-dimethylisoxazol-4-yl)pyrrolo[3,2-b]pyridin-3-yl]pyrimidin-2-amine], the pIC50 in the assay with bromodomain was > 5.00. Further, the IC50 in the assay with MV-4-11 cells and at BRD4-BD12 (1-477) was < 1 µM in each case.
`[2H]C([2H])(C1CCC(F)(F)CC1)n1cc(-c2cnc(C3CC3)nc2)c2ncc(-c3c(C)noc3C)cc21` [P-0349, 4-[3-(2-cyclopropylpyrimidin-5-yl)-1-[dideuterio-(4,4-difluorocyclohexyl)methyl)pyrrolo[3,2-b]pyridin-6-yl]-3,5-dimethyl-isoxazole]: the pIC50 in the assay with bromodomain is > 5.00. Also, the IC50 in the assay with MV-4-11 cells and at BRD4-BD12 (1-477) was < 1 µM each time.
Turning to `Cc1noc(C)c1-c1cnc2c(-c3cnn(C(F)F)c3)cn(Cc3ncccn3)c2c1` [P-0350, 4-[3-[1-(difluoromethyl)pyrazol-4-yl]-1-(pyrimidin-2-ylmethyl)pyrrolo[3,2-b]pyridin-6-yl]-3,5-dimethyl-isoxazole], the pIC50 in the assay with bromodomain is > 5.00. In addition, the IC50 in the assay on MV-4-11 cells and at BRD4-BD12 (1-477) was < 1 µM throughout.
On to `Cc1noc(C)c1-c1cnc2c(-c3cnn(CC(F)(F)F)c3)cn([C@H](C)c3ccc(F)cc3)c2c1` [P-0351, 4-[1-[(1R)-1-(4-fluorophenyl)ethyl]-3-[1-(2,2,2-trifluoroethyl)pyrazol-4-yl]pyrrolo[3,2-b]pyridin-6-yl]-3,5-dimethyl-isoxazole], for which the pIC50 with bromodomain is > 5.00. Further, the IC50 with MV-4-11 cells and on BRD4-BD12 (1-477) was < 1 µM in each case.
With `Cc1noc(C)c1-c1cnc2c(-c3cnn(C(F)F)c3)cn([C@H](C)c3ccc(F)cc3)c2c1` [P-0352, 4-[3-[1-(difluoromethyl)pyrazol-4-yl]-1-[(1R)-1-(4-fluorophenyl)ethyl]pyrrolo[3,2-b]pyridin-6-yl]-3,5-dimethyl-isoxazole], in the assay with bromodomain, the pIC50 was > 5.00. For the same compound, the IC50 in the assay on MV-4-11 cells and at BRD4-BD12 (1-477) was < 1 µM throughout.
In the case of `Cc1noc(C)c1-c1cnc2c(-c3cnn(CC(F)(F)F)c3)cn(Cc3ncccn3)c2c1` [P-0353, 3,5-dimethyl-4-[1-(pyrimidin-2-ylmethyl)-3-[1-(2,2,2-trifluoroethyl)pyrazol-4-yl]pyrrolo(3,2-b]pyridin-6-yl]isoxazole], the pIC50 in the assay on bromodomain was > 5.00. Besides, the IC50 in the assay with MV-4-11 cells and on BRD4-BD12 (1-477) was < 1 µM throughout.
Consider `Cc1noc(C)c1-c1cnc2c(-c3cnn(CC(F)(F)F)c3)cn([C@@H](C)c3ccc(F)cc3)c2c1` [P-0354, 4-[1-[(1S)-1-(4-fluorophenyl)ethyl]-3-(1-(2,2,2-trifluoroethyl)pyrazol-4-yl]pyrrolo(3,2-b)pyridin-6-yl]-3,5-dimethyl-isoxazole], for which the pIC50 in the assay with bromodomain was > 5.00. The IC50 in the assay on MV-4-11 cells and at BRD4-BD12 (1-477) was < 1 µM in each case.
Turning to `Cc1noc(C)c1-c1cnc2c(-c3cnn(C(F)F)c3)cn([C@@H](C)c3ccc(F)cc3)c2c1` [P-0355, 4-[3-[1-(difluoromethyl)pyrazol-4-yl]-1-[(1S)-1-(4-fluorophenyl)ethyl]pyrrolo[3,2-b]pyridin-6-yl]-3,5-dimethyl-isoxazole], in the assay on bromodomain, the pIC50 was > 5.00. The IC50 with MV-4-11 cells and on BRD4-BD12 (1-477) was < 1 µM in each case.
